From US10266544B2, “Aryl substituted aminomethyl spectinomycin analogs as antibacterial agents” (ST. JUDE CHILDREN'S RESEARCH HOSPITAL, INC., priority 2013, dated 2019)
Converted amounts (≈) assume the structure as drawn. Counter-ions that a name gives are not always drawn. Like-named read-outs stand apart in the source and are kept apart here.

What was measured:
Assay type in all cases: cell-based
[1] = test system: M. tuberculosis clinical isolates; assay: microbe, parasite or virus in culture; settings: Mycobacterium tuberculosis, H37RV, read-out: MIC H37Rv
[2] = test system: Streptococcus pneumoniae (R6); assay: MIC determination, microbroth dilution; settings: Streptococcus pneumoniae (R6); read-out: MIC S. pn.
[3] = test system: Stenotrophomonas maltophilia (ATCC 13637); assay: MIC determination, microbroth dilution; settings: ATCC13637; Stenotrophomonas maltophilia (ATCC 13637); read-out: MIC S.m.
[4] = test system: Proteus vulgaris (ATCC 33420); assay: MIC determination, microbroth dilution; settings: ATCC33420
[5] = test system: Streptococcus pyogenes (ATCC 700294); assay: MIC determination, microbroth dilution; settings: ATCC700294; Streptococcus pyogenes (ATCC 700294); read-out: MIC S. py.
[6] = test system: acinetobacter baumannii (ATCC 19606); assay: MIC determination, microbroth dilution; settings: ATCC19606
[7] = test system: Neisseria gonorrhoeae (ATCC 49226); assay: Disc diffusion assay; settings: ATCC49226, 4 μg per disc, read-out: Zone of inhibition N.g.
[8] = test system: MRSA, Staphylococcus aureus (NRS70); assay: MIC determination, microbroth dilution; settings: read-out: MIC MRSA
[9] = test system: Staphylococcus aureus (ATCC 29213); assay: MIC determination, microbroth dilution
[10] = test system: Bacillus subtilis (ATCC 23857); assay: MIC determination, microbroth dilution; settings: ATCC23857; Bacillus subtilis (ATCC 23857); read-out: MIC B.s.
[11] = test system: Pseudomonas aeruginosa (PA01); assay: MIC determination, microbroth dilution
[12] = test system: Klebsiella pneumoniae (ATCC 33495); assay: MIC determination, microbroth dilution; settings: ATCC33495
[13] = test system: Burkholderia cepacia (ATCC 25416); assay: MIC determination, microbroth dilution; settings: Burkholderia cepacia
[14] = test system: Bacillus anthracis, Sterne 34F2; assay: microbe, parasite or virus in culture; settings: STERNE34F2, read-out: MIC B.a.
[15] = test system: Proteus mirabilis (ATCC 25933); assay: MIC determination, microbroth dilution; settings: ATCC25933
[16] = test system: Neisseria meningitides (ATCC 13077); assay: Disc diffusion assay; settings: ATCC13077, 4 μg per disc, read-out: Zone of inhibition N.m.
[17] = test system: Haemophilus influenza (ATCC 49247); assay: microbe, parasite or virus in culture; settings: ATCC49247; Haemophilus influenza; 4 μg per disc; range of at least two experiments; read-out: Zone of inhibition H.i.
[18] = test system: Enterococcus faecalis (ATCC 33186); assay: MIC determination, microbroth dilution
[19] = test system: Neisseria gonorrhoeae (ATCC 49226); assay: Agar MIC determination (Alamar Blue); settings: ATCC49226, agar MIC, read-out: MIC N.g.
[20] = test system: Legionella pneumophila (ATCC 33153); assay: microbe, parasite or virus in culture; settings: ATCC33153, 72 h, read-out: Zone of inhibition L.p.
[21] = test system: Bacillus anthracis; assay: microbe, parasite or virus in culture; settings: read-out: MIC B.a.
[22] = test system: Moraxella catarrhalis; assay: MIC determination (Table 6)
[23] = test system: Listeria monocytogenes; assay: MIC determination (Table 6)
[24] = test system: E. coli K12 ΔtolC; assay: microbe, parasite or virus in culture; settings: Escherichia coli, read-out: MIC E.c. Δtolc
[25] = test system: Escherichia coli (ATCC 700926); assay: MIC determination, microbroth dilution
[26] = ATCC29213, Staphylococcus aureus (ATCC 29213), read-out: MIC S.a.
[27] = ATCC25416, read-out: MIC B.c., Burkholderia cepacia (ATCC 25416)
[28] = ATCC33186, Enterococcus faecalis (ATCC 33186), read-out: MIC E.f.
[29] = ATCC25416, read-out: MIC B.c., Burkholderia cepacia, Table 6
[30] = ATCC700926, Escherichia coli (ATCC 700926), read-out: MIC E.c.

Compound | MIC [1] | MIC [2] | MIC [3] | MIC [4] | MIC [5] | MIC [6] | zone of inhibition at 4 µg/disc [7] | MIC ([8]; Staphylococcus aureus (NRS70)) | MIC [9, 26] | MIC [10] | MIC [11] | MIC [12] | MIC [13, 27] | MIC [14] | MIC [15] | zone of inhibition at 4 µg/disc [16] | zone of inhibition at 4 µg/disc [17] | MIC [18, 28] | zone of inhibition at 4 µg/disc [20] | MIC [21] | other results
CN[C@@H]1[C@H](O)[C@H](NC)[C@H]2O[C@]3(O)[C@H](O[C@@H]2[C@H]1O)O[C@H](C)C[C@@]3(O)CNCc1nc2ccccc2s1 [compound 34, 3′-(A′)-3′-(benzo[d]thiazolylmethyl)aminomethyl dihydrospectinomycin Trihydrobromide] | 12.5 µg/mL | 6.3 µg/mL | 100 µg/mL | > 200 µg/mL | 3.1 µg/mL | > 200 µg/mL | 8 mm | 100 to 200 µg/mL | 50 to 100 µg/mL | 50 to 100 µg/mL | > 200 µg/mL | 100 to 200 µg/mL | > 200 µg/mL | 50 µg/mL | > 200 µg/mL | 12 mm | 7 mm | 25 µg/mL | – | – | MIC [19]: 100 µg/mL
CN[C@@H]1[C@H](O)[C@H](NC)[C@H]2O[C@]3(O)[C@H](O[C@@H]2[C@H]1O)O[C@H](C)C[C@@]3(O)CNCc1ccc(C(C)C)cc1 [compound 23, 3′-(R)-3′-[(4-isopropyl)benzylaminomethyl)]dihydrospectinomycin Trihydrochloride] | 25 µg/mL | 1.6 to 3.1 µg/mL | 6.3 µg/mL | > 200 µg/mL | 1.6 µg/mL | 50 µg/mL | 18 mm | – | – | 6.3 µg/mL | 25 µg/mL | 50 µg/mL | > 200 µg/mL | 12.5 µg/mL | > 200 µg/mL | 17 mm | 15 mm | – | 12 mm | 12.5 µg/mL | MIC ([8]; Staphylococcus aureus): 12.5 µg/mL; MIC ([9]; Staphylococcus aureus, ATCC29213, read-out: MIC S.a.): 12.5 to 25 µg/mL; MIC [13, 29]: > 200 µg/mL; MIC [22]: 3.1 to 6.3 µg/mL; MIC [23]: 6.3 µg/mL; MIC [24]: 3.1 to 6.3 µg/mL; MIC [25, 30]: 12.5 µg/mL; MIC ([18]; Enterococcus faecalis, ATCC33186, read-out: MIC E.f.): 12.5 µg/mL
CN[C@@H]1[C@H](O)[C@H](NC)[C@H]2O[C@]3(O)[C@H](O[C@@H]2[C@H]1O)O[C@H](C)C[C@@]3(O)CNCc1ccc(C)cc1C [compound 24, 3′-(R)-3′-[(2,4-dimethyl)benzylaminomethyl)]dihydrospectinomycin Trihydrochloride] | 25 µg/mL | 3.1 µg/mL | 25 to 50 µg/mL | 200 µg/mL | 1.6 µg/mL | 200 µg/mL | 18 mm | 50 µg/mL | 6.3 to 12.5 µg/mL | 12.5 µg/mL | 50 µg/mL | 100 to 200 µg/mL | > 200 µg/mL | 50 µg/mL | > 200 µg/mL | 17 mm | 14 mm | 12.5 µg/mL | 18 mm | 50 µg/mL | MIC [13, 29]: > 200 µg/mL; MIC [22]: 1.6 µg/mL; MIC [23]: 12.5 µg/mL; MIC [24]: 12.5 to 25 µg/mL; MIC [25, 30]: 25 µg/mL
CN[C@@H]1[C@H](O)[C@H](NC)[C@H]2O[C@]3(O)[C@H](O[C@@H]2[C@H]1O)O[C@H](C)C[C@]3(O)CNCc1ccc(OC(F)(F)F)cc1 (stereo in doubt) [compound 26, 3′-(S)-3′-[(4-trifluoromethoxyl)benzylaminomethyl)]dihydrospectinomycin Trihydrochloride] | 100 µg/mL | > 200 µg/mL | 50 µg/mL | > 200 µg/mL | > 200 µg/mL | 50 to 100 µg/mL | – | > 200 µg/mL | ≥ 200 µg/mL | 100 to 200 µg/mL | > 200 µg/mL | 100 µg/mL | > 200 µg/mL | ≥ 200 µg/mL | > 200 µg/mL | – | – | > 200 µg/mL | 8 mm | – | MIC [24]: 6.3 µg/mL; MIC ([25]; Escherichia coli, ATCC700926, read-out: MIC E.c.): 50 µg/mL; MIC [19]: 50 to 100 µg/mL
CN[C@@H]1[C@H](O)[C@H](NC)[C@H]2O[C@]3(O)[C@H](O[C@@H]2[C@H]1O)O[C@H](C)C[C@@]3(O)CNCc1cccc(OC(F)(F)F)c1 [compound 25, 3′-(R)-3′-[(3-trifluoromethoxyl)benzylaminomethyl)]dihydrospectinomycin Trihydrochloride] | 200 µg/mL | 1.6 to 3.1 µg/mL | 12.5 to 25 µg/mL | > 200 µg/mL | 1.6 µg/mL | – | 18 mm | 50 µg/mL | 25 to 50 µg/mL | 12.5 to 25 µg/mL | 50 to 100 µg/mL | – | – | 25 µg/mL | > 200 µg/mL | 18 mm | 9 to 10 mm | 12.5 to 25 µg/mL | 19 mm | 25 µg/mL | MIC [13, 29]: > 200 µg/mL; MIC [22]: 6.3 µg/mL; MIC [23]: 6.3 µg/mL
CN[C@@H]1[C@H](O)[C@H](NC)[C@H]2O[C@]3(O)[C@H](O[C@@H]2[C@H]1O)O[C@H](C)C[C@@]3(O)CNCc1cnc[nH]1 [compound 20] | 6.3 µg/mL (≈ 14.2 µM) | 25 to 50 µg/mL (≈ 56.4 to 113 µM) | 3.1 to 6.3 µg/mL (≈ 6.99 to 14.2 µM) | 100 to 200 µg/mL (≈ 225 to 451 µM) | 50 µg/mL (≈ 113 µM) | > 200 µg/mL | – | ≥ 200 µg/mL | 200 µg/mL (≈ 451 µM) | 25 µg/mL (≈ 56.4 µM) | 200 µg/mL (≈ 451 µM) | 50 to 100 µg/mL (≈ 113 to 225 µM) | 100 to 200 µg/mL (≈ 225 to 451 µM) | 50 to 100 µg/mL (≈ 113 to 225 µM) | 200 µg/mL (≈ 451 µM) | – | – | 100 µg/mL (≈ 225 µM) | – | 50 to 100 µg/mL (≈ 113 to 225 µM) | MIC [13, 29]: 100 to 200 µg/mL (≈ 225 to 451 µM); MIC [24]: 25 µg/mL (≈ 56.4 µM); MIC [25, 30]: 50 µg/mL (≈ 113 µM); MIC [19]: 100 to 200 µg/mL (≈ 225 to 451 µM)
